Reference: ChEMBL document CHEMBL1287680, “C-11 diamino cryptolepine derivatives NSC748392, NSC748393, and NSC748394: anticancer profile and G-quadruplex stabilization” (Bioorg Med Chem Lett, 2010)

Experiments:
[1] = system: NCI-H460; experiment: cells; conditions: Homo sapiens
Description: Anticancer activity against human NCI-H460 cells

[2] = system: OVCAR-5; experiment: cells; conditions: Homo sapiens
Description: Anticancer activity against human OVCAR5 cells

[3] = system: 786-0; experiment: cells; conditions: Homo sapiens
Description: Anticancer activity against human 786-0 cells

[4] = system: KM12; experiment: cells; conditions: Homo sapiens
Description: Anticancer activity against human KM12 cells

[5] = system: MCF7; experiment: cells; conditions: Homo sapiens
Description: Anticancer activity against human MCF7 cells

[6] = system: HCT-116; experiment: cells; conditions: Homo sapiens
Description: Anticancer activity against human HCT116 cells

[7] = system: NCI/ADR-RES; experiment: cells; conditions: Homo sapiens
Description: Anticancer activity against human NCI/ADR-RES cells

[8] = system: UO-31; experiment: cells; conditions: Homo sapiens
Description: Anticancer activity against human UO31 cells

[9] = system: CCRF-CEM; experiment: cells; conditions: Homo sapiens
Description: Anticancer activity against human CCRF-CEM cells

[10] = system: MOLT-4; experiment: cells; conditions: Homo sapiens
Description: Anticancer activity against human MOLT4 cells

[11] = system: M14; experiment: cells; conditions: Homo sapiens
Description: Anticancer activity against human M14 cells

[12] = system: NCI-H23; experiment: cells; conditions: Homo sapiens
Description: Anticancer activity against human NCI-H23 cells

[13] = system: PC-3; experiment: cells; conditions: Homo sapiens
Description: Anticancer activity against human PC3 cells

[14] = cells; conditions: Homo sapiens, Hs-578T
Description: Anticancer activity against human Hs 578T cells

[15] = system: HCT-15; experiment: cells; conditions: Homo sapiens
Description: Anticancer activity against human HCT15 cells

[16] = system: SK-MEL-28; experiment: cells; conditions: Homo sapiens
Description: Anticancer activity against human SK-MEL-28 cells

[17] = system: HL-60(TB); experiment: cells; conditions: Homo sapiens
Description: Anticancer activity against human HL-60(TB) cells

[18] = system: SN12C; experiment: cells; conditions: Homo sapiens
Description: Anticancer activity against human SN12C cells

[19] = system: Nucleic Acid; conditions: Homo sapiens
Description: Binding affinity to human G-quadruplex DNA assessed as change in melting temperature by FRET-melting assay

[20] = system: MDA-MB-435; experiment: cells; conditions: Homo sapiens
Description: Anticancer activity against human MDA-MB-435 cells

[21] = system: U-251; experiment: cells; conditions: Homo sapiens
Description: Anticancer activity against human U251 cells

[22] = system: NCI-H322M; experiment: cells; conditions: Homo sapiens
Description: Anticancer activity against human NCI-H322M cells

[23] = system: CAKI-1; experiment: cells; conditions: Homo sapiens
Description: Anticancer activity against human Caki1 cells

[24] = system: Vero; experiment: cells; conditions: Chlorocebus sabaeus, 48 h
Description: Cytotoxicity against african green monkey Vero cells after 48 hrs by MTT assay

[25] = system: A498; experiment: cells; conditions: Homo sapiens
Description: Anticancer activity against human A498 cells

[26] = system: Nucleic Acid; conditions: Homo sapiens; remark: listed apart in the source
Description: Binding affinity to human duplex DNA assessed as change in melting temperature by FRET-melting assay

[27] = system: SNB-75; experiment: cells; conditions: Homo sapiens
Description: Anticancer activity against human SNB75 cells

[28] = system: EKVX; experiment: cells; conditions: Homo sapiens
Description: Anticancer activity against human EKVX cells

[29] = system: NCI-H522; experiment: cells; conditions: Homo sapiens
Description: Anticancer activity against human NCI-H522 cells

[30] = system: UACC-257; experiment: cells; conditions: Homo sapiens
Description: Anticancer activity against human UACC257 cells

[31] = system: OVCAR-3; experiment: cells; conditions: Homo sapiens
Description: Anticancer activity against human OVCAR-3 cells

C[n+]1c2ccccc2c(NC2CCNCC2)c2[nH]c3ccccc3c21.[Cl-]
GI50 ([1]; NCI-H460, read-out: pGI50 (converted)): 0.245 µM
CC50 ([1]; NCI-H460, read-out: pLC50 (converted)): 22.4 µM
TGI ([1]; NCI-H460, read-out: pTGI): 1.62 µM
GI50 ([2]; OVCAR-5, read-out: pGI50 (converted)): 1.66 µM
CC50 ([2]; OVCAR-5, read-out: pLC50 (converted)): > 100 µM
TGI ([2]; OVCAR-5, read-out: pTGI): 17 µM
GI50 ([3]; 786-0, read-out: pGI50 (converted)): 3.47 µM
CC50 ([3]; 786-0, read-out: pLC50 (converted)): > 100 µM
TGI ([3]; 786-0, read-out: pTGI): 18.2 µM
GI50 ([4]; KM12, read-out: pGI50 (converted)): 0.708 µM
CC50 ([4]; KM12, read-out: pLC50 (converted)): > 100 µM
TGI ([4]; KM12, read-out: pTGI): 10 µM
GI50 ([5]; MCF7, read-out: pGI50 (converted)): 0.224 µM
CC50 ([5]; MCF7, read-out: pLC50 (converted)): > 100 µM
TGI ([5]; MCF7, read-out: pTGI): 2.14 µM
GI50 ([6]; HCT-116, read-out: pGI50 (converted)): 0.813 µM
CC50 ([6]; HCT-116, read-out: pLC50 (converted)): > 100 µM
TGI ([6]; HCT-116, read-out: pTGI): 4.9 µM
GI50 ([7]; read-out: pGI50 (converted)): > 100 µM
CC50 ([7]; read-out: pLC50 (converted)): > 100 µM
TGI ([7]; read-out: pTGI): > 100 µM
GI50 ([8]; UO-31, read-out: pGI50 (converted)): 13.2 µM
CC50 ([8]; UO-31, read-out: pLC50 (converted)): > 100 µM
TGI ([8]; UO-31, read-out: pTGI): 46.8 µM
GI50 ([9]; read-out: pGI50 (converted)): 0.457 µM
CC50 ([9]; read-out: pLC50 (converted)): 52.5 µM
TGI ([9]; read-out: pTGI): 3.02 µM
GI50 ([10]; MOLT-4, read-out: pGI50 (converted)): 0.138 µM
CC50 ([10]; MOLT-4, read-out: pLC50 (converted)): > 100 µM
TGI ([10]; MOLT-4, read-out: pTGI): > 100 µM
GI50 ([11]; M14, read-out: pGI50 (converted)): 3.16 µM
CC50 ([11]; M14, read-out: pLC50 (converted)): 43.7 µM
TGI ([11]; M14, read-out: pTGI): 15.1 µM
GI50 ([12]; NCI-H23, read-out: pGI50 (converted)): 0.0589 µM
CC50 ([12]; NCI-H23, read-out: pLC50 (converted)): 10.2 µM
TGI ([12]; NCI-H23, read-out: pTGI): 0.646 µM
GI50 ([13]; PC-3, read-out: pGI50 (converted)): 1.95 µM
CC50 ([13]; PC-3, read-out: pLC50 (converted)): 97.7 µM
TGI ([13]; PC-3, read-out: pTGI): 10.5 µM
GI50 ([14]; read-out: pGI50 (converted)): 0.12 µM
CC50 ([14]; read-out: pLC50 (converted)): 44.7 µM
TGI ([14]; read-out: pTGI): 1.12 µM
GI50 ([15]; HCT-15, read-out: pGI50 (converted)): 23.4 µM
CC50 ([15]; HCT-15, read-out: pLC50 (converted)): > 100 µM
TGI ([15]; HCT-15, read-out: pTGI): > 100 µM
GI50 ([16]; SK-MEL-28, read-out: pGI50 (converted)): 1.05 µM
CC50 ([16]; SK-MEL-28, read-out: pLC50 (converted)): 10.5 µM
TGI ([16]; SK-MEL-28, read-out: pTGI): 3.24 µM
GI50 ([17]; HL-60, read-out: pGI50 (converted)): 2.19 µM
CC50 ([17]; HL-60, read-out: pLC50 (converted)): > 100 µM
TGI ([17]; HL-60, read-out: pTGI): > 100 µM
GI50 ([18]; read-out: pGI50 (converted)): 0.0295 µM
CC50 ([18]; read-out: pLC50 (converted)): > 100 µM
TGI ([18]; read-out: pTGI): 0.316 µM
ΔTm [19]: 19.9 °C
GI50 ([20]; MDA-MB-435, read-out: pGI50 (converted)): 2.95 µM
CC50 ([20]; MDA-MB-435, read-out: pLC50 (converted)): 42.7 µM
TGI ([20]; MDA-MB-435, read-out: pTGI): 10.5 µM
GI50 ([21]; U-251, read-out: pGI50 (converted)): 0.282 µM
CC50 ([21]; U-251, read-out: pLC50 (converted)): > 100 µM
TGI ([21]; U-251, read-out: pTGI): 2.95 µM
GI50 ([22]; read-out: pGI50 (converted)): 0.372 µM
CC50 ([22]; read-out: pLC50 (converted)): > 100 µM
TGI ([22]; read-out: pTGI): 12 µM
GI50 ([23]; CAKI-1, read-out: pGI50 (converted)): 15.1 µM
CC50 ([23]; CAKI-1, read-out: pLC50 (converted)): > 100 µM
TGI ([23]; CAKI-1, read-out: pTGI): 60.3 µM
IC50 [24]: 10 µM
GI50 ([25]; A498, read-out: pGI50 (converted)): 1.62 µM
CC50 ([25]; A498, read-out: pLC50 (converted)): 26.3 µM
TGI ([25]; A498, read-out: pTGI): 5.13 µM
ΔTm [26]: 15.1 °C
GI50 ([27]; SNB-75, read-out: pGI50 (converted)): 1.38 µM
CC50 ([27]; SNB-75, read-out: pLC50 (converted)): 24.5 µM
TGI ([27]; SNB-75, read-out: pTGI): 5.37 µM
GI50 ([28]; read-out: pGI50 (converted)): 0.525 µM
CC50 ([28]; read-out: pLC50 (converted)): > 100 µM
TGI ([28]; read-out: pTGI): 8.32 µM
GI50 ([29]; NCI-H522, read-out: pGI50 (converted)): 0.123 µM
CC50 ([29]; NCI-H522, read-out: pLC50 (converted)): 3.31 µM
TGI ([29]; NCI-H522, read-out: pTGI): 0.692 µM
GI50 ([30]; UACC-257, read-out: pGI50 (converted)): 5.37 µM
CC50 ([30]; UACC-257, read-out: pLC50 (converted)): 81.3 µM
TGI ([30]; UACC-257, read-out: pTGI): 24 µM
GI50 ([31]; OVCAR-3, read-out: pGI50 (converted)): 1.45 µM
CC50 ([31]; OVCAR-3, read-out: pLC50 (converted)): 95.5 µM
TGI ([31]; OVCAR-3, read-out: pTGI): 9.55 µM
